Common to all, as to assay: relative viability (nuclei count vs DMSO), 5 days (fraction); higher = more cells survive
Compound in the assay “Alpelisib + Trametinib”: Cc1nc(NC(=O)N2CCC[C@H]2C(N)=O)sc1-c1ccnc(C(C)(C)C(F)(F)F)c1 [Alpelisib] + CC(=O)Nc1cccc(-n2c(=O)n(C3CC3)c(=O)c3c(Nc4ccc(I)cc4F)n(C)c(=O)c(C)c32)c1 [Trametinib] (partner 0.02 µM)
The method in brief:
(§1)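 Lung cancer cell lines in 1536-well plates got either a single drug or a fixed anchor-drug dose together with five library-drug doses (not always all listed) in √10 steps, by pin tool, on the day after seeding. Nuclei were counted after 5 days, and relative viability is the treated-to-vehicle ratio of nuclei counts. Values are medians of duplicate plates.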

Compound in the assay “OSI-027 + Pictilisib”: COc1cccc2cc(-c3nc([C@H]4CC[C@H](C(=O)O)CC4)n4ncnc(N)c34)[nH]c12 [OSI-027] + CS(=O)(=O)N1CCN(Cc2cc3nc(-c4cccc5[nH]ncc45)nc(N4CCOCC4)c3s2)CC1 [Pictilisib] (partner 1 µM)
An outline of the steps: as §1

Compound in the assay “Vemurafenib + Olaparib”: CCCS(=O)(=O)Nc1ccc(F)c(C(=O)c2c[nH]c3ncc(-c4ccc(Cl)cc4)cc23)c1F [Vemurafenib] + O=C(c1cc(Cc2n[nH]c(=O)c3ccccc23)ccc1F)N1CCN(C(=O)C2CC2)CC1 [Olaparib] (partner 8 µM)
The method in brief:
as §1

Compound in the assay “Vemurafenib + Decitabine”: CCCS(=O)(=O)Nc1ccc(F)c(C(=O)c2c[nH]c3ncc(-c4ccc(Cl)cc4)cc23)c1F [Vemurafenib] + Nc1ncn([C@H]2C[C@H](O)[C@@H](CO)O2)c(=O)n1 [Decitabine] (partner 2 µM)
The method in brief:
as §1

For UMC-11, the relative viability came out at 0.696 with Alpelisib + Trametinib (first compound 0.04 µM); 0.628 with Alpelisib + Trametinib (first compound 0.1265 µM); 0.875 with Alpelisib + Trametinib (first compound 0.4 µM); 0.67 with Alpelisib + Trametinib (first compound 1.265 µM); 0.68 in the assay with Alpelisib + Trametinib (first compound 4 µM); 0.739 with OSI-027 + Pictilisib (first compound 0.01 µM). The relative viability with OSI-027 + Pictilisib (first compound 0.03162 µM) is 1.03; with OSI-027 + Pictilisib (first compound 0.1 µM), 0.664; with OSI-027 + Pictilisib (first compound 0.3162 µM) it was 0.636; with OSI-027 + Pictilisib (first compound 1 µM) it was 0.412; with Vemurafenib + Olaparib (first compound 0.03162 µM), 0.391; with Vemurafenib + Olaparib (first compound 0.1 µM), 0.4. Besides, the relative viability in the assay with Vemurafenib + Olaparib (first compound 0.3162 µM) stood at 0.392; with Vemurafenib + Olaparib (first compound 1 µM), 0.375; with Vemurafenib + Decitabine (first compound 0.03162 µM), 0.568; with Vemurafenib + Decitabine (first compound 0.1 µM), 0.595; with Vemurafenib + Decitabine (first compound 1 µM), 0.545.

The values above are taken from the supplement of paper PMC10307832.
